Assay results published in patent US12655150B2 (Cedilla Therapeutics, Inc., priority 2021, dated 2026).
Where a name gives a salt, the structure may show the parent alone.

System: NCI-H226
Test: 72H TEAD Proliferation Assay (Cell Titer Glo 2.0)
Assay type: cell-based
Settings: Homo sapiens, NCI-H226, 72 h, CTG 2.0, cell line not given (NCI-H226 responsive, NCI-H28 non-responsive)
Method in brief: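 NF2-deficient NCI-H226 mesothelioma cells, TEAD-dependent, treated 72 h; NF2-wild-type NCI-H28 serves as the TEAD-independent counter-screen for off-target cytotoxicity. Viable cells quantified by CellTiter-Glo 2.0 luminescence; background and time-zero signal subtracted, GI50 from nonlinear dose-response fit.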

GI50 [µM]	SMILES
5 to 10	CC(C)(C)c1ccc(-c2nc3cc(NC(=O)c4ccccn4)ccc3n3cccc23)cc1 [I-207, N-(4-(4-(tert-butyl)phenyl)pyrrolo[1,2-a]quinoxalin-7-yl)picolinamide]
> 10	CC(C)(C)c1ccc(-c2nc(CCc3nnn[nH]3)cn3ccnc23)cc1 [I-156, 6-(2-(1H-tetrazol-5-yl)ethyl)-8-(4-(tert-butyl)phenyl)imidazo[1,2-a]pyrazine]
≤ 1	C=CC(=O)NCc1cn2ccnc2c(-c2ccc(C(F)(F)F)cc2)n1 [I-109, N-((8-(4-(trifluoromethyl)phenyl)imidazo[1,2-a]pyrazin-6-yl)methyl)acrylamide]
1 to 5	Cc1cnc(-c2nc3cc(C(=O)O)ccc3n3cccc23)nc1 [I-129, 4-(5-Methylpyrimidin-2-yl)pyrrolo[1,2-a]quinoxaline-7-carboxylic acid]
> 10	O=C(O)c1ccc2c(c1)nc(-c1ccncc1)c1cccn12 [I-47, 4-(Pyridin-4-yl)pyrrolo[1,2-a]quinoxaline-7-carboxylic acid]
1 to 5	CCC(=O)Nc1ccc2c(c1)nc(-c1ccc(C(C)(C)C)cc1)c1nccn12 [I-134, N-(4-(4-(tert-butyl)phenyl)imidazo[1,2-a]quinoxalin-7-yl)propionamide]
5 to 10	Cc1nc2ccc(C(=O)O)cc2nc1-c1ccc(C(F)(F)F)cc1 [I-422, 2-methyl-3-(4-(trifluoromethyl)phenyl)quinoxaline-6-carboxylic acid]
5 to 10	CC(C)(C)c1ccc(-c2nc3cc(C(=O)O)ccc3n3ccnc23)cc1 [I-58, 4-(4-(tert-Butyl)phenyl)imidazo[1,2-a]quinoxaline-7-carboxylic acid]
≤ 1	C=CC(=O)NC(C)(CO)c1cn2ccnc2c(-c2ccc(C(F)(F)F)cc2)n1 (centres unmarked) [I-251, N-(1-hydroxy-2-(8-(4-(trifluoromethyl)phenyl)imidazo[1,2-a]pyrazin-6-yl)propan-2-yl)acrylamide]
≤ 1	C=C(F)C(=O)NCc1cc2ccccc2c(-c2ccc(C(C)(C)C)cc2)n1 [I-215, N-((1-(4-(tert-butyl)phenyl)isoquinolin-3-yl)methyl)-2-fluoroacrylamide]
> 10	CC(C)(C)c1ccc(-c2cnc3ccc(-c4nnn[nH]4)cc3n2)cc1 [I-160, 2-(4-(tert-Butyl)phenyl)-7-(1H-tetrazol-5-yl)quinoxaline]
≤ 1	C=CC(=O)NCc1nc(-c2ccc(C(F)(F)F)cc2)c2ccccc2n1 [I-167, N-((4-(4-(trifluoromethyl)phenyl)quinazolin-2-yl)methyl)acrylamide]
≤ 1	C=C(F)C(=O)NCc1cc2ccccc2c(-c2ccc(C(F)(F)F)cc2)n1 [I-168, 2-Fluoro-N-((1-(4-(trifluoromethyl)phenyl)isoquinolin-3-yl)methyl)acrylamide]
1 to 5	CC(C)(C)c1ccc(-c2nc3cc(S(C)(=O)=O)ccc3n3cccc23)cc1 [I-323, 4-(4-(tert-butyl)phenyl)-7-(methylsulfonyl)pyrrolo[1,2-a]quinoxaline]
≤ 1	Cc1cc(-c2ccc(C(F)(F)F)cc2)nc2cc(C(=O)O)ccc12 [I-89, 4-Methyl-2-(4-(trifluoromethyl)phenyl)quinoline-7-carboxylic acid]
5 to 10	C=CC(=O)NCc1nc(-c2ccc(C(F)(F)F)cc2)c2[nH]ccc2n1 [I-450, N-((4-(4-(trifluoromethyl)phenyl)-5H-pyrrolo[3,2-d]pyrimidin-2-yl)methyl)acrylamide]
> 10	COc1cn2ccnc2c(-c2ccc(C(C)(C)C)cc2)n1 [I-149, 8-(4-(tert-Butyl)phenyl)-6-methoxyimidazo[1,2-a]pyrazine]
≤ 1	CC[C@H](CO)NC(=O)c1ccc2c(C)cc(-c3ccc(C(F)(F)F)cc3)nc2c1 [I-265, (R)—N-(1-hydroxybutan-2-yl)-4-methyl-2-(4-(trifluoromethyl)phenyl)quinoline-7-carboxamide]
≤ 1	CCOc1nc(-c2ccc(C(F)(F)F)cc2)nc2cc(C(=O)O)ccc12 [I-432, 4-ethoxy-2-(4-(trifluoromethyl)phenyl)quinazoline-7-carboxylic acid]
≤ 1	COc1cc2c(-c3ccc(C(C)(C)C)cc3)nc3cc(C(=O)O)ccc3n2c1 [I-180, 4-(4-(tert-butyl)phenyl)-2-methoxypyrrolo[1,2-a]quinoxaline-7-carboxylic acid]
≤ 1	O=C(/C=C/CF)NCc1cn2ccnc2c(-c2ccc(C(F)(F)F)cc2)n1 [I-214, (E)-4-fluoro-N-((8-(4-(trifluoromethyl)phenyl)imidazo[1,2-a]pyrazin-6-yl)methyl)but-2-enamide]
≤ 1	COC[C@H](C)NC(=O)c1ccc2c(C)cc(-c3ccc(C(F)(F)F)cc3)nc2c1 [I-263, (S)—N-(1-methoxypropan-2-yl)-4-methyl-2-(4-(trifluoromethyl)phenyl)quinoline-7-carboxamide]
5 to 10	CC[C@H](CO)NC(=O)c1ccc2nc(C)c(-c3ccc(C(F)(F)F)cc3)nc2c1 [I-423, (R)—N-(1-hydroxybutan-2-yl)-2-methyl-3-(4-(trifluoromethyl)phenyl)quinoxaline-6-carboxamide]
≤ 1	C=CC(=O)NCC(=C)c1cn2ccnc2c(-c2ccc(C(F)(F)F)cc2)n1 [I-250, N-(2-(8-(4-(trifluoromethyl)phenyl)imidazo[1,2-a]pyrazin-6-yl)allyl)acrylamide]
1 to 5	CC(C)(C)c1ccc(-c2nc3cc(NS(C)(=O)=O)ccc3n3cccc23)cc1 [I-122, N-(4-(4-(tert-butyl)phenyl)pyrrolo[1,2-a]quinoxalin-7-yl)methanesulfonamide]
> 10	CC(C)(C)c1ccc(-c2nc(O)cn3ccnc23)cc1 [I-148, 8-(4-(tert-Butyl)phenyl)imidazo[1,2-a]pyrazin-6-ol]

More lines, now with the values behind:

SMILES	GI50 [µM]
N#Cc1cc(C(F)(F)F)ccc1-c1nc2cc(C(=O)O)ccc2n2cccc12 [I-54, 4-(2-Cyano-4-(trifluoromethyl)phenyl)pyrrolo[1,2-a]quinoxaline-7-carboxylic acid]	5 to 10
CC(C)(C)N1CCN(c2nc3cc(C(=O)O)ccc3n3cccc23)CC1 [I-20, 4-(4-(tert-Butyl)piperazin-1-yl)pyrrolo[1,2-a]quinoxaline-7-carboxylic acid]	> 10
O=C(O)c1ccc2c(c1)nc(N1CCC3(CCCCC3)C1)c1cccn12 [I-28, 4-(2-Azaspiro [4.5]decan-2-yl) pyrrolo[1,2-a] quinoxaline-7-carboxylic acid]	1 to 5
O=C(O)c1ccc2c(c1)nc(N1CC3C(C1)C3C(F)(F)F)c1cccn12 (centres unmarked) [I-128, 4-(6-(Trifluoromethyl)-3-azabicyclo[3.1.0]hexan-3-yl)pyrrolo[1,2-a]quinoxaline-7-carboxylic acid hydrochloride]	1 to 5
O=C(O)c1ccc2c(c1)nc(N1CCCC1)c1cccn12 [I-15, 4-(Pyrrolidin-1-yl)pyrrolo[1,2-a]quinoxaline-7-carboxylic acid]	> 10
C=CC(=O)Nc1ccc2c(C)cc(-c3ccc(C(F)(F)F)cn3)nc2c1 [I-252, N-(4-methyl-2-(5-(trifluoromethyl)pyridin-2-yl)quinolin-7-yl)acrylamide]	≤ 1
COc1cc(-c2ccc(C(F)(F)F)cc2)nc2cc(C(=O)NCCC(=O)C(F)(F)F)ccc12 [I-362, 4-Methoxy-N-(4,4,4-trifluoro-3-oxobutyl)-2-(4-(trifluoromethyl)phenyl)quinoline-7-carboxamide]	1 to 5
CC[C@H](CO)NC(=O)c1ccc2c(OC)cc(-c3c(Cl)cc(C(F)(F)F)cc3Cl)nc2c1 [I-398, (R)-2-(2,6-dichloro-4-(trifluoromethyl)phenyl)-N-(1-hydroxybutan-2-yl)-4-methoxyquinoline-7-carboxamide]	1 to 5
O=C(O)c1ccc2c(c1)nc(N1CCC3(CCOC3)CC1)c1cccn12 [I-35, 4-(2-Oxa-8-azaspiro[4.5]decan-8-yl)pyrrolo[1,2-a]quinoxaline-7-carboxylic acid]	1 to 5
C#Cc1cc(-c2ccc(C(F)(F)F)cc2)nc2cc(C(=O)N[C@H](CC)CO)ccc12 [I-400, (R)-4-ethynyl-N-(1-hydroxybutan-2-yl)-2-(4-(trifluoromethyl)phenyl)quinoline-7-carboxamide]	≤ 1
COCC(C)OC(=O)N1CCc2c(cccc2-c2ccc(C(F)(F)F)cc2)C1 (centres unmarked) [I-79, 1-Methoxypropan-2-yl 5-(4-(trifluoromethyl)phenyl)-3,4-dihydroisoquinoline-2(1H)-carboxylate]	1 to 5
O=C(O)c1ccc2c(C3CC3)cc(-c3ccc(C(F)(F)F)cc3)nc2c1 [I-387, 4-cyclopropyl-2-(4-(trifluoromethyl)phenyl)quinoline-7-carboxylic acid]	≤ 1
COc1cc(-c2ccc(C(F)(F)F)cc2)nc2cc(C(=O)N[C@@H](CO)c3ccc(O)cc3)ccc12 [I-363, (R)—N-(2-hydroxy-1-(4-hydroxyphenyl)ethyl)-4-methoxy-2-(4-(trifluoromethyl)phenyl)quinoline-7 carboxamide]	≤ 1
O=C(O)c1ccc2c(c1)nc(-c1ccc(C(F)(F)F)cn1)c1cccn12 [I-132, 4-(5-(Trifluoromethyl)pyridin-2-yl)pyrrolo[1,2-a]quinoxaline-7-carboxylic acid]	≤ 1
C=CC(=O)NCc1cc2ccccc2c(-c2ccc(C(F)(F)F)cc2F)n1 [I-301, N-((1-(2-Fluoro-4-(trifluoromethyl)phenyl)isoquinolin-3-yl)methyl)acrylamide]	≤ 1
Cc1cc(-c2ccc(OC(F)(F)F)cc2)nc2cc(C(=O)O)ccc12 [I-256, 4-methyl-2-(4-(trifluoromethoxy)phenyl)quinoline-7-carboxylic acid]	1 to 5
COc1cccc([C@H](C)NC(=O)c2ccc3c(OC)cc(-c4ccc(C(F)(F)F)cc4)nc3c2)c1 [I-348, (S)-4-methoxy-N-(1-(3-methoxyphenyl)ethyl)-2-(4-(trifluoromethyl)phenyl)quinoline-7-carboxamide]	≤ 1
O=C(O)c1ccc2c(c1)nc(C1CCC1)c1cccn12 [I-113, 4-Cyclobutylpyrrolo[1,2-a]quinoxaline-7-carboxylic acid]	> 10
